How the values were obtained:
headache = test: Topical NSAID formulations in treatment of headache (inventors' observation); type: in vivo, human; details: topically applied to tender spot or area superficial to carotid, temporal and/or vertebral artery
Source text: Especially preferred compositions include a xanthine derivative in a concentration of about 4% (wt) to 70% (wt) and ketoprofen in a concentration of about 0.5% (wt) to 50% (wt). With respect to the xanthine derivative, the same considerations as described above apply. Furthermore, such particularly preferred compositions may be formulated in a lecithin-containing formulation or a pluronic-lecithin-organogel formulation (supra). It should be especially recognized, that compositions including a xanthine derivative or an NSAID have generally been described in the art. However, the inventors observed that formulations including an NSAID other than Ketoprofen generally fail to provide relief in treatment of a headache, when topically applied to a person (either to a tender spot, or to an area superficial to a carotid artery, a temporal artery and/or a vertebral artery). […] While not wishing to be bound by a particular hypothesis or theory, the inventors contemplate that the effect of Ketoprofen may be at least in part mediated by a muscle-relaxant effect rather than via a suppressive effect in inflammation.

fever = details: oral delivery; cited from earlier work

| SMILES | relief in treatment of a headache (headache) | time to achieve sufficient concentration in the plasma to lower the fever (fever) |
| --- | --- | --- |
| CC(C(=O)O)c1cccc(C(=O)c2ccccc2)c1 (centres unmarked) [Ketoprofen, 2-(meta-benzoylphenyl)propionic acid] | the only NSAID effective in treatment of a headache | – |
| CC(=O)Nc1ccc(O)cc1 [acetaminophen, Acetaminophen] | – | at least 20 minutes |

— patent US7981901B2, “Compositions and methods for targeting cerebral circulation and treatment of headache” (priority 2001, dated 2011)
